The values below come from patent publication US9523693B2, “Methods for determining ligand binding to a target protein using a thermal shift assay” (Biotarget Engagement Interest Group AB, priority 2011, dated 2016).

SMILES strings stand for the structures.

Assay [1] has as its target T1, thymidylate synthase (TS) (Homo sapiens, UniProt P04818).
T1 construct: Lysate was prepared from cultured human adenocarcinoma cells (A549); endogenous in cells; host or cells: A549
Briefly: Thermal shift in A549 cell lysate, Western blot, TS. The conditions noted are these: ligand at 10 times the described IC50. The class given is binding. The source says: Cells were disrupted on ice in hypotonic buffer and with homogenisation. The suspensions were freeze-thawed multiple times and all insoluble aggregates and cell debris were pelleted by centrifugation after completed lysis.
The signal from the bound secondary antibody was detected by chemiluminescense and recorded with a CCD camera. The intensities were plotted to visualize the changes in melting temperature following ligand treatment.
Background: Immunoblotting shows a protein as a band on a membrane.

The target in assay [2] is methionine-aminopeptidase-2 (Homo sapiens, UniProt P50579). Briefly: Thermal shift in human K562 cell lysate, Western blot. The format is binding. On the procedure: (§1) Studies were done on cells from two different systems: a) intact cow liver biopsies incubated with TNP-470 and b) human cultured cells incubated with TNP-470. […] After treatment with or without the inhibitor, the samples were prepared and subjected to an array of increasing temperatures. The precipitated protein fraction was pelleted by means of centrifugation and the supernatant from each temperature step was analysed on gels and by Western blot. Melting temperatures of proteins treated with TNP-470 were compared to those of untreated samples.
Sequence of methionine-aminopeptidase-2 (Homo sapiens, UniProt P50579) (P50579 whole entry): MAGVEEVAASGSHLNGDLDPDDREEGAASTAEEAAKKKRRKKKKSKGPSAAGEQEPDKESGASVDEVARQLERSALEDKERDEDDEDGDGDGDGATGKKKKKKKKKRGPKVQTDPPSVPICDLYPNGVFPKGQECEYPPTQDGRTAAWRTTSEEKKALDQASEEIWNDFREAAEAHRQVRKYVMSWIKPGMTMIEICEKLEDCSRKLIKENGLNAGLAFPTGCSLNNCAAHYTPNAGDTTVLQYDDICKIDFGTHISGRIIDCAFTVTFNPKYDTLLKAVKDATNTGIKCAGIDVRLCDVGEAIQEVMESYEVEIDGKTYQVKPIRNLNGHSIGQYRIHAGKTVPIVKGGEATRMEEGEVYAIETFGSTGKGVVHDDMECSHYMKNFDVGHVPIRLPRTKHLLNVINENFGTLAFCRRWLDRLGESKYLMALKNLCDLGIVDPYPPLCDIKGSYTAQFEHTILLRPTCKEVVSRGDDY
(§2) Lysate was prepared for cultured human cells (K562) and cow liver samples by disruption on ice in hypotonic buffer and with homogenisation. The suspensions were freeze-thawed multiple times and all insoluble aggregates and cell debris were pelleted by centrifugation after completed lysis. The lysate of each cell type was divided into two aliquots, where one was supplemented with TNP-470 (dissolved in pure DMSO) and the other with an equivalent volume of pure DMSO. […]
(§3) Next, a series of temperatures were applied to different samples ranging between +56° C. to +88° C. with 2 or 4° C. increments and a 3 minute hold at each step. […] The signal from the bound secondary antibody was detected by chemiluminescense and recorded with a CCD camera. […]

For assay [3], the target named is T2, methionine-aminopeptidase-2 (Bos taurus, UniProt Q3ZC89).
T2 construct: Lysate was prepared for cultured human cells (K562) and cow liver samples; from tissue; host or cells: cow liver
T2 sequence (Q3ZC89 whole entry): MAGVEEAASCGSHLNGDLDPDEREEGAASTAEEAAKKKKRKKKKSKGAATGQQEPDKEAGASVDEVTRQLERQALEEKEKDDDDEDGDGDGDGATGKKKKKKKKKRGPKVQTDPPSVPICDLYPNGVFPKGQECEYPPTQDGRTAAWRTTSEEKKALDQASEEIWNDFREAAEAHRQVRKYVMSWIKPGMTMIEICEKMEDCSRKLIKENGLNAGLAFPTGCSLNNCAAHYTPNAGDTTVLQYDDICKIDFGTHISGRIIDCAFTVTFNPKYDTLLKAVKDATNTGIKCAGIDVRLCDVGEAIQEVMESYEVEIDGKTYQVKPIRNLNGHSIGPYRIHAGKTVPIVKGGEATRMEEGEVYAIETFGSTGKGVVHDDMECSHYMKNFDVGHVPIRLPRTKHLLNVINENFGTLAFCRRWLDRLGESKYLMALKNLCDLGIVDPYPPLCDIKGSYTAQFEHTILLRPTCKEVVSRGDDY
Briefly: Thermal shift in cow liver lysate, Western blot. The format is binding. On the procedure: as §1, §2, §3

For assay [4], the target named is T3, p38α (Homo sapiens, UniProt Q16539).
T3 construct: host or cells: HL-60
T3 sequence (Q16539 whole entry): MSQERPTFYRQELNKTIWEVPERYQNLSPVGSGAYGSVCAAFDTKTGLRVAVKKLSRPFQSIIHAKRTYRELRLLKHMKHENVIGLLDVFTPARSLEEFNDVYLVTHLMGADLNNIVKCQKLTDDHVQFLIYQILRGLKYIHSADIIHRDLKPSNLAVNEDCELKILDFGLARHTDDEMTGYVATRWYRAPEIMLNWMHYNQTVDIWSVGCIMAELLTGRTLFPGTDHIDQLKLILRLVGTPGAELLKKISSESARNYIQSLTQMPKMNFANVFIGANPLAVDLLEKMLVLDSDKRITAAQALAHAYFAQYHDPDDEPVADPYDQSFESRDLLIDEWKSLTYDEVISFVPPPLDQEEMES
Briefly: Isothermal dose-response fingerprint (ITDRF CETSA) in HL-60 cells. The class given is cell-based. The conditions noted are these: HL-60 cells heated at 50° C.; western blot and AlphaScreen.
Experimental: Thus, in this method, HL-60 cells were expanded in cell culture medium to a cell density of 1-2 million cells/ml using standard cell culture. The cell suspension was collected and transferred to 15 ml conical tubes. The conical tubes were centrifuged at 300 g for 3 minutes at room temperature and the medium discarded. The cell pellet was resuspended in fresh media to provide a cell density of approximately 40 million cells/ml. […] 100 DMSO was placed in columns 2-12. The stock solutions were serially diluted by transferring 50 from columns 1 to 2, mixing and then by continuing this process one column at a time until column 11, where a final 50 is removed and discarded. Column 12 acted as a control. A second plate was prepared as a backup by splitting the serial dilutions into the second plate. All the serially diluted solutions were diluted 50 fold by adding cell culture media. 5 μl of all diluted compound solutions were then transferred to a Twin.tec PCR plate. […] The plate was shaken every 10 minutes.
The PCR plate was then incubated in a thermal cycler (Techne) and heated for 3 minutes at 50° C. The plate was then placed in an aluminium block for 3 minutes to ensure consistent cooling.
Detection was then carried out using the AlphaScreen method. […] The Luminescence was read using an Envision plate reader and data software (e.g. GraphPad Orism) was used to evaluate the luminescence data. […]

In assay [5] the target is T3, p38α. Briefly: CETSA melting curve in HL-60 cells. The format is cell-based. The following applies: for apparent Tagg value (average±s.d.): 20 μM compound.
Experimental: HL60 cells were expanded in cell culture medium to about 2 million cells per ml, where approximately 120 million cells were required to determine four melting curves. 15 ml of the 2 million HL60 cells/ml of suspension were added to four separate T75 flasks. […] The same volume of DMSO was added to the remaining flask as a control. The cell suspensions were mixed gently by pipetting. […] The cell suspension was then collected and cells were transferred to 15 ml conical tubes. Cell numbers were counted and cell viability assessed. The conical tubes were then centrifuged at 300 g for 3 minutes at room temperature to pellet the cells and the culture medium was discarded.
Cell pellets were then resuspended with 15 ml PBS and centrifuged for 3 minutes at 300 g at room temperature. 1 ml of PBS supplemented with protease inhibitors was added to each tube and the pellet resuspended. Each cell suspension was distributed into ten different 0.2 ml PCR tubes with 100 μl of cell suspension in each tube, with each of the ten tubes to be heated at a different temperature.
Immediately after hating, the tubes were removed and incubated at room temperature for 3 minutes. The samples were then snap-frozen.
The tubes were vortexed after being thawed and the cell lysates kept on ice after the last thawing. The cell lysates were then centrifuged at 20000 g for 20 minutes at 4° C. to pellet the cell debris. Finally, 90 μl of lysate was then transferred to a new tube for analysis.
Analysis was carried out using the alphascreen format. […] 4 μl of each solution was transferred from the PCR tubes to a separate well of a 384-well ProxiPlate. 5 μl of acceptor beads were added and the plate sealed with a Thermowell plate seal and agitated for 5 minutes at 500 rpm. The plate was then incubated for 2 hours at room temperature. 2 μl of donor beads were then added an the plate sealed and centrifuged at 100 g at room temperature for 10 seconds. The plate was then agitated for 5 minutes at 500 rpm. The plate was incubated at room temperature for at least 2 hours and chemiluminescence read using an Envision plate reader. […]
For assay [6], the target named is T3, p38α. Briefly: Homogeneous AlphaScreen-based CETSA screen in HL-60 cells. The format is cell-based. The following applies: both screen concentrations, 10 and 50 μM, 50° C. 3 min. Background: Bead proximity is the source of the signal in Alpha formats.
Experimental: HL-60 cells were expanded in cell culture medium to a density of approximately 1.5-2 million cells/ml. The cell suspension was collected and the cells transferred to 15 ml conical tubes. The tubes were then centrifuged at 300 g for 3 mins at room temperature and the media was discarded. The cell pellet was resuspended in media to a cell density of about 30 million cells/ml. […] The plates are sealed and stored. The Echo 550 acoustic liquid dispenser was used to place 20 nl of the 10 mM DMSO stock solution in each well of four separate Twin tec PCR plates in columns 1-11. […] The plates were shaken every 10 mins.
The plates were placed in a thermal cycler and heated for 3 mins at 50° C. and were then removed and placed in an aluminium block for 3 mins at room temperature.
140 μl of 1× PerkinElmer lysis buffer was added to all wells and the wells were mixed. 4 μl of the samples were transferred to quadrant one of the 384-well ProxiPlate. This was done for all 96-well plates. […] The chemiluminescence was read with a Envision plate reader and evaluated using data processing software as described previously.
The feasibility of applying the homogeneous assay for screen purposes was assessed by testing the homogeneous assay protocol to determine how this responds to the presence of a small set of test compounds taken from a diversity library. […]
Assay [7] concerns the target T4, human soluble PIK3C3 protein (Homo sapiens, UniProt Q8NEB9).
T4 construct: expressed in transfected cells; host or cells: E. coli
Briefly: Thermal shift (lysis/filtration blot) in E. coli cells overexpressing PIK3C3 construct. The format is cell-based. The following applies: 1 mM Compound 15e or 500 μM Wortmannin, without ligand ca +55°. An excerpt: An expression construct of human soluble PIK3C3 protein in an expression vector with N-terminal His-tag was used to investigate a possible increase in melting temperature of the PIK3C3 construct after addition and binding of either of two PIK3C3 specific inhibitors; Wortmannin and Compound 15e. After treatment with or without one of the two inhibitors the cells expressing the PIK3C3 constructs were exposed to a panel of increasing temperatures and after each temperature step the cells expressing the proteins were spotted onto a “lysis/filtration sandwich” soaked in lysis buffer. By using this lysis/filtration step on the “lysis/filtration sandwich” the soluble protein (up to the construct's specific melting temperature) could be detected on a capturing nitrocellulose membrane as dark spots, whereas precipitated protein (i.e., above its specific melting temperature) was not able to pass through the filter membrane and could therefore not be detected. Melting temperatures of constructs treated with Compound 15e or Wortmannin were compared with those of untreated samples. […]

The target in assay [8] is V600E variant B-raf protein (Homo sapiens, UniProt P15056, V600E). The following applies: A375 lysate. On the procedure: (§4) Lysate was prepared from cultured human A375 cells containing the V600E substitution in B-raf and K562, containing the wild type version thereof. Cells were disrupted on ice in hypotonic buffer and with homogenisation. The suspensions were freeze-thawed multiple times and all insoluble aggregates and cell debris were pelleted by centrifugation after completed lysis. The supernatants containing optically clear cytosolic fraction were each aliquoted into two tubes where each tube contained either the ligand SB590885 dissolved in DMSO or pure DMSO for control. The samples were incubated and subsequently aliquoted into 8-tube PCR strips in fractions of 50 microliters. A series of temperatures were applied to the different samples ranging between +44° C. to +62° C. with 2° C. increments and a 3 minute hold at each temperature. Following heating, the samples were cooled and the precipitated protein pelleted by centrifugation. 20 microliter of each supernatant was removed and supplemented with gel loading buffer and fully denatured by heating. The samples were loaded on a separating gel, which after full run time was blotted onto a nitrocellulose membrane. The membrane was washed and blocked with blocking reagent and probed with primary and secondary antibodies. The signal from the bound secondary antibody was detected by chemiluminescense and recorded with a CCD camera. […]
Sequence of V600E variant B-raf protein (P15056 whole entry V600E): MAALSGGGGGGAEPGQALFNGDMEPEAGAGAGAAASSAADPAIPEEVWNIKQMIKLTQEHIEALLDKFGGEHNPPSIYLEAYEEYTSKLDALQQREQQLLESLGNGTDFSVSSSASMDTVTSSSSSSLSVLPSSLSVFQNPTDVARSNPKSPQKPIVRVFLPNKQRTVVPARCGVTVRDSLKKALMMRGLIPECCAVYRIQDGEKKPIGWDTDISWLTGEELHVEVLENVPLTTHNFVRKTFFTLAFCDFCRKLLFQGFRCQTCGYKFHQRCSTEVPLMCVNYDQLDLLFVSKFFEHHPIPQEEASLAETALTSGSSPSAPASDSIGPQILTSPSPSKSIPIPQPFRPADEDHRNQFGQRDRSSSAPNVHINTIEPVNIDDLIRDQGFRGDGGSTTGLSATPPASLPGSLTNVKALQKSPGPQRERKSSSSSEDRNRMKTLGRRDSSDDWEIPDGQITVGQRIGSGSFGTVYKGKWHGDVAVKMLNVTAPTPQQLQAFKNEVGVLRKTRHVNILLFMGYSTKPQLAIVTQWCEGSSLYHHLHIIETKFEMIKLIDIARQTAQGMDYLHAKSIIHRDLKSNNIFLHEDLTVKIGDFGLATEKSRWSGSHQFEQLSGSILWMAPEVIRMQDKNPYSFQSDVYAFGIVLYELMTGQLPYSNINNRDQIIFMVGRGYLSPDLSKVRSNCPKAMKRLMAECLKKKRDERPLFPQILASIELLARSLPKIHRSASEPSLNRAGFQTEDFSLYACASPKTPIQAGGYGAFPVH

The target in assay [9] is wild-type B-raf protein (Homo sapiens, UniProt P15056). The following applies: K562 lysate. Here is the method: as §4
Sequence of wild-type B-raf protein (P15056 whole entry): as the sequence (P15056 whole entry V600E) above, with E600V counted along it

T1 sequence (P04818 2-313 limits assumed): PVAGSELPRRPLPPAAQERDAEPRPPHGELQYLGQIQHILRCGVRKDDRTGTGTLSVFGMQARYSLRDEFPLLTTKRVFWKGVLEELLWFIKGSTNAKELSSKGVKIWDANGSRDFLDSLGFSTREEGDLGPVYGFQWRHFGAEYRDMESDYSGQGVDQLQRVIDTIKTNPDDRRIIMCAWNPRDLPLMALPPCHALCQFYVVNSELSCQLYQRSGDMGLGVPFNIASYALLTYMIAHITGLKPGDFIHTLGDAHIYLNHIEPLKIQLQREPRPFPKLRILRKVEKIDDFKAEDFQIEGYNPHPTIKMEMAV
T4 sequence (Q8NEB9 whole entry): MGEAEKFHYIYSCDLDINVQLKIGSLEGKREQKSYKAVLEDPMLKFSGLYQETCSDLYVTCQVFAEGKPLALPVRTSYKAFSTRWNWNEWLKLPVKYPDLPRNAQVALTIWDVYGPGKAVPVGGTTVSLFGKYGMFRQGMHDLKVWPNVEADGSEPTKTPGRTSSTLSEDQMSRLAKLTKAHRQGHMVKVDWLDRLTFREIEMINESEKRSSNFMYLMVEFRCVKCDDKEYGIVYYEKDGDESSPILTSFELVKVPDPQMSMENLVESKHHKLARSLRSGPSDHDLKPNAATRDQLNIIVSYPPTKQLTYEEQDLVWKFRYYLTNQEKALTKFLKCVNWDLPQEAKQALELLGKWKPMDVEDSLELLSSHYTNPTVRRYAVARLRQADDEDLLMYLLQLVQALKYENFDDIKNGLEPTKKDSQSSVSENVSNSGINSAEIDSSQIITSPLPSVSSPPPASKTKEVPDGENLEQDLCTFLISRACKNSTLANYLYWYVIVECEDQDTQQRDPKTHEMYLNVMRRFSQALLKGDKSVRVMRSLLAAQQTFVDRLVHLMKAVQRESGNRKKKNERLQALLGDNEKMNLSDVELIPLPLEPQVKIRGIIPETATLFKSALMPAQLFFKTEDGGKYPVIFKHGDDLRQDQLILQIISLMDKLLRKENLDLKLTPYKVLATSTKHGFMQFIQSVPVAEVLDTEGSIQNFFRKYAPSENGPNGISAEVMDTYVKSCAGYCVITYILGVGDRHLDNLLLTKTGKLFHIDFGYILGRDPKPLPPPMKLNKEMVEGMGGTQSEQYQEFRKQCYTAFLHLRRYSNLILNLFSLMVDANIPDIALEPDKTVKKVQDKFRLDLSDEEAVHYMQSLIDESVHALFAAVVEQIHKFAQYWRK

Consider `Cc1nc2ccc(CN(C)c3ccc(C(=O)N[C@@H](CCC(=O)O)C(=O)O)s3)cc2c(=O)[nH]1` [raltitrexed], for which the “change of melting temperature of TS” value in [1] is on record as “increased melting temperature”.
In the case of `CO[C@@H]1[C@H](OC(=O)NC(=O)CCl)CC[C@]2(CO2)[C@H]1[C@@]1(C)O[C@@H]1CC=C(C)C` [TNP-470], the results for the “shift in melting temperature” value in assay [2] and in assay [3] were 18 °C and 14 °, respectively. Moreover, the “melting temperature after addition of ligand” value in assay [2] (without ligand 62° C.) and in assay [3] (without ligand 66° C.) was 80 °C in each case.
Regarding `Cc1cnc(Nc2ccc(F)cc2Cl)nc1-c1c[nH]c(C(=O)N[C@H](CO)c2cccc(Cl)c2)c1` [ERK 11e], the “thermal stabilization of p38α within the tested concentration range” value in assay [4] is on record as “did not result in any stabilization”. Also, in assay [5] (20 μM), the “shift of the apparent Tagg (response)” value is on record as “lack of a substantial response”. Further, in [6], the “screen outcome (increase of the AlphaScreen signal vs DMSO-only controls)” value was “cannot be distinguished from the rest of the inactive compounds”.
As to `Cn1c(NC[C@@H](N)Cc2ccccc2)nc(-c2ccncc2)c(-c2ccc3ccccc3c2)c1=O` [AMG-548], the “apparent Tagg value (average±s.d.)” value was 59.2±0.9 °C in assay [5] (AlphaScreen detection, no inhibitor 46.7±0.7) and 60.6±1.0 °C in [5] (western blot detection, no inhibitor 48±0.8). The “screen outcome (increase of the AlphaScreen signal vs DMSO-only controls)” value in assay [6] is given as “stabilizing hits”.
Turning to `Oc1cccc(-c2nc(N3CCOCC3)c3sccc3n2)c1` [Compound 15e, 3-[4-(4-Morpholinyl)thieno[3,2-d]pyrimidin-2-yl]-phenol], in assay [7], the “melting temperature after addition of inhibitor” value was approximately 58 °C.
On to `CN(C)CCOc1ccc(-c2nc(-c3ccncc3)c(-c3ccc4c(c3)CC/C4=N\O)[nH]2)cc1` [SB590885], for which the “increase in the melting temperature” value in assay [8] was approximately 6 °C; in assay [9], 3 °C.
